Our source for the IC50 values is US20240083861A1, “HSD17B13 INHIBITORS AND USES THEREOF” (FL2022-001, Inc., priority 2020, published 2024).

This test deals with T1, Recombinant human HSD17B13 enzyme (Homo sapiens, UniProt Q7Z5P4).
T1 sequence (Q7Z5P4 20-300): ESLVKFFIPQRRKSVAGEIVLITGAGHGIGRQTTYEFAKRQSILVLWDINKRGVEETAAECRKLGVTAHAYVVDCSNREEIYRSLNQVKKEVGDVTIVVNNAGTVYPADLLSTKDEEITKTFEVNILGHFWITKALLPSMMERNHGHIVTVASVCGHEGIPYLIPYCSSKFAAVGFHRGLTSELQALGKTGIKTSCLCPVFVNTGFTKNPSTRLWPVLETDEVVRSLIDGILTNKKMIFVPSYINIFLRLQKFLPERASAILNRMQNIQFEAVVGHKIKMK
Kind of test: HSD17b13 NAD(P)H-Glo biochemical assay. To be noted: 50 uM estradiol, 1 mM NAD+, NAD(P)H-Glo luminescence; read-out: HSD17β13 IC50. The essentials:
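Recombinant human HSD17B13 in 20 mM Tris pH7.4 with 0.002% Tween-20 and 0.02% BSA was preincubated with inhibitor for 20 minutes at RT. The reaction ran 3 hours at 37° C with 50 uM estradiol and 1 mM NAD+ (final). NADH formed was detected by NAD(P)H-Glo luminescence after 1 hour at RT.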
As to `COCC1(Nc2cc3c(cn2)c(-c2cc(C(F)(F)F)c(F)c(O)c2F)nn3C)CCC1` [Compound 9.98, 2,6-Difluoro-3-(6-((1-(methoxymethyl)cyclobutyl)amino)-1-methyl-1H-pyrazolo[4,3-c]pyridin-3-yl)-5-(trifluoromethyl)phenol], the IC50 was below 100 nM. For the compound `Cn1nc(-c2cc(C(F)(F)F)c(F)c(O)c2F)c2cnc(NC3CCC3)nc21` [Compound 9.16, 3-(6-(Cyclobutylamino)-1-methyl-1H-pyrazolo[3,4-d]pyrimidin-3-yl)-2,6-difluoro-5-(trifluoromethyl)phenol], the half-maximal inhibitory concentration (IC50) is below 100 nM. As for `Cn1nc(-c2cc(C(F)(F)F)c(F)c(O)c2F)c2cnc(N3C4CCC3COC4)cc21` [Compound 9.20, 3-(6-(3-Oxa-8-azabicyclo [3.2.1]octan-8-yl)-1-methyl-1H-pyrazolo[4,3-c]pyridin-3-yl)-2,6-difluoro-5-(trifluoromethyl)phenol], the IC50 was below 100 nM. For `CC(=O)N1CCC(N(C)c2ncc3c(-c4cc(C(F)(F)F)c(F)c(O)c4F)nn(C)c3n2)CC1` [Compound 19.01, 1-(4-((3-(2,4-Difluoro-3-hydroxy-5-(trifluoromethyl)phenyl)-1-methyl-1H-pyrazolo[3,4-d]pyrimidin-6-y1)(methyl)amino)piperidin-1-yl)ethan-1-one], the IC50 was below 100 nM.

As to `Cn1nc(-c2cc(C(F)(F)F)c(F)c(O)c2F)c2cnc(N3CCN(S(C)(=O)=O)C4(CCC4)C3)cc21` [Compound 9.134, 2,6-Difluoro-3-(1-methyl-6-(5-(methylsulfonyl)-5,8-diazaspiro[3.5]nonan-8-yl)-1H-pyrazolo[4,3-c]pyridin-3-yl)-5-(trifluoromethyl)phenol], the IC50 was below 100 nM. Next, `Cn1nc(-c2cc(C(F)(F)F)c(F)c(O)c2F)c2cnc(C3CCN(S(C)(=O)=O)CC3)nc21` [Compound 15.04, 2,6-Difluoro-3-(1-methyl-6-(1-(methylsulfony1)piperidin-4-y1)-1H-pyrazolo[3,4-d]pyrimidin-3-yl)-5-(trifluoromethyl)phenol]: below 100 nM; `CNC(=O)C1CN(c2cc3c(cn2)c(-c2cc(C(F)(F)F)c(F)c(O)c2F)nn3C)CCO1` (centres unmarked) [Compound 9.80, 4-(3-(2,4-Difluoro-3-hydroxy-5-(trifluoromethyl)phenyl)-1-methyl-1H-pyrazolo[4,3-c]pyridin-6-yl)-N-methylmorpholine-2-carboxamide]: below 100 nM; `Cn1nc(-c2cc(C(F)(F)F)c(F)c(O)c2F)c2cnc(N3CCC(O)(CO)CC3)nc21` [Compound 18.91, 1-(3-(2,4-Difluoro-3-hydroxy-5-(trifluoromethyl)phenyl)-1-methyl-1H-pyrazolo[3,4-d]pyrimidin-6-yl)-4-(hydroxymethyl)piperidin-4-ol]: below 100 nM.

Consider `Cc1cc(-c2n[nH]c3cc(C4=CCN(S(C)(=O)=O)CC4)ccc23)c(F)c(O)c1F` [Compound 14.02, 2,6-Difluoro-3-methyl-5-(6-(1-(methylsulfonyl)-1,2,3,6-tetrahydropyridin-4-y1)-1H-indazol-3-y1)phenol], for which the IC50 was below 100 nM.

For the compound `O=C(NC1(CO)CCC1)c1ccc2oc(-c3cc(C(F)(F)F)c(F)c(O)c3F)nc2c1` [Compound 1.28, 2-(2,4-Difluoro-3-hydroxy-5-(trifluoromethyl)phenyl)-N-(1-(hydroxymethyl)cyclobutyl)benzo[d] oxazole-5-carboxamide], the IC50 lay within 100 to 1000 nM. `CC(C)C(=O)NC1CCN(c2ncc3c(-c4cc(C(F)(F)F)c(F)c(O)c4F)nn(C)c3n2)CC1` [Compound 18.27, N-(1-(3-(2,4-Difluoro-3-hydroxy-5-(trifluoromethyl)phenyl)-1-methyl-1H-pyrazolo[3,4-d]pyrimidin-6-y1)piperidin-4-yl)isobutyramide]: the half-inhibitory concentration (IC50) is below 100 nM. The same measure for `CC(=O)N1CCN(c2cc3c(cn2)c(-c2cc(C(F)(F)F)c(F)c(O)c2F)nn3C)C2(CC2)C1` [Compound 9.87, 1-(4-(3-(2,4-Difluoro-3-hydroxy-5-(trifluoromethyl)phenyl)-1-methyl-1H-pyrazolo[4,3-c]pyridin-6-yl)-4,7-diazaspiro[2.5]octan-7-yl)ethanone]: below 100 nM.

Turning to `CO[C@H]1C[C@@H](N(C)c2cc3c(cn2)c(-c2cc(C(F)(F)F)c(F)c(O)c2F)nn3C)C1` [Compound 9.36, 2,6-Difluoro-3-(6-((cis-3-methoxycyclobutyl)(methyl)amino)-1-methyl-1H-pyrazolo[4,3-c]pyridin-3-yl)-5-(trifluoromethyl)phenol], the IC50 is below 100 nM. The same measure for `CS(=O)(=O)NC1CN(C(=O)c2ccc3oc(-c4cc(O)c(F)c(F)c4)nc3c2)C1` [Compound 1.05, N-(1-(2-(3,4-Difluoro-5-hydroxyphenyl)benzo[d]oxazole-5-carbonyl)azetidin-3-yl)methanesulfonamide]: 100 to 1000 nM; for `Cn1nc(-c2cc(C(F)(F)F)c(F)c(O)c2F)c2cnc(N3CCOC4(CC4)C3)nc21` [Compound 18.105, 2,6-Difluoro-3-(1-methyl-6-(4-oxa-7-azaspiro[2.5]octan-7-y1)-1H-pyrazolo[3,4-d]pyrimidin-3-y1)-5-(trifluoromethyl)phenol]: below 100 nM; for `Cn1nc(-c2cc(C(F)(F)F)c(F)c(O)c2F)c2cnc(N3CCOCC3C3CCC3)nc21` (centres unmarked) [Compound 18.104, 3-(6-(3-Cyclobutylmorpholino)-1-methyl-1H-pyrazolo[3,4-d]pyrimidin-3-y1)-2,6-difluoro-5-(trifluoromethyl)phenol]: below 100 nM. On to `O=C(NCC1(O)CCC1)c1ccc2oc(-c3cc(C(F)(F)F)c(F)c(O)c3F)nc2c1` [Compound 1.30, 2-(2,4-Difluoro-3-hydroxy-5-(trifluoromethyl)phenyl)-N-((1-hydroxycyclobutyl)methyl)benzo[d] oxazole-5-carboxamide], for which the IC50 is 100 to 1000 nM. For the compound `Cn1nc(-c2cc(C(F)(F)F)c(F)c(O)c2F)c2cnc(N3CCOC(c4nccs4)C3)nc21` (centres unmarked) [Compound 18.80, 2,6-Difluoro-3-(1-methyl-6-(2-(thiazol-2-yl)morpholino)-1H-pyrazolo[3,4-d]pyrimidin-3-y1)-5-(trifluoromethyl)phenol], the IC50 was below 100 nM. As for `Cn1nc(-c2cc(C(F)(F)F)c(F)c(O)c2F)c2cnc(N3CCN(S(C)(=O)=O)C4(CCCC4)C3)nc21` [Compound 18.83, 2,6-Difluoro-3-(1-methyl-6-(6-(methylsulfonyl)-6,9-diazaspiro[4.5]decan-9-yl)-1H-pyrazolo[3,4-d]pyrimidin-3-y1)-5-(trifluoromethyl)phenol], the IC50 was below 100 nM. Next, `Cn1nc(-c2cc(C(F)(F)F)c(F)c(O)c2F)c2cnc(N3CCOCC3=O)cc21` [Compound 9.101, 4-(3-(2,4-Difluoro-3-hydroxy-5-(trifluoromethyl)phenyl)-1-methyl-1H-pyrazolo[4,3-c]pyridin-6-yl)morpholin-3-one]: 100 to 1000 nM. Next, `Cn1nc(-c2cc(O)c(F)c(C(F)(F)F)c2)c2ccc(N3CCN(S(C)(=O)=O)CC3)cc21` [Compound 9.26, 2-Fluoro-5-(1-methyl-6-(4-(methylsulfonyl)piperazin-1-yl)-1H-indazol-3-yl)-3-(trifluoromethyl)phenol]: 100 to 1000 nM; `CN1CCC2(CC1)CCN(c1ncc3c(-c4cc(C(F)(F)F)c(F)c(O)c4F)nn(C)c3n1)CC2` [Compound 18.47, 2,6-Difluoro-3-(1-methyl-6-(9-methyl-3,9-diazaspiro[5.5]undecan-3-y1)-1H-pyrazolo[3,4-d]pyrimidin-3-y1)-5-(trifluoromethyl)phenol]: below 100 nM.

As to `Cn1nc(-c2cc(C(F)(F)F)c(F)c(O)c2F)c2ccc(N3CCOCC34CC4)nc21` [Compound 9.03, 2,6-Difluoro-3-(1-methyl-6-(7-oxa-4-azaspiro[2.5]octan-4-yl)-1H-pyrazolo[3,4-b]pyridin-3-yl)-5-(trifluoromethyl)phenol], the IC50 is below 100 nM. Regarding `Cn1nc(-c2cc(C(F)(F)F)c(F)c(O)c2F)c2cnc(NC3CCOCC3)cc21` [Compound 9.94, 2,6-Difluoro-3-(1-methyl-6-((tetrahydro-2H-pyran-4-yl)amino)-1H-pyrazolo[4,3-c]pyridin-3-yl)-5-(trifluoromethyl)phenol], the half-maximal inhibitory concentration (IC50) was below 100 nM.

`COC1CCN(c2cc3c(cn2)c(-c2cc(C(F)(F)F)c(F)c(O)c2F)nn3C)C2(CCC2)C1` (centres unmarked) [Compound 9.75, 2,6-Difluoro-3-(6-(8-methoxy-5-azaspiro[3.5]nonan-5-yl)-1-methyl-1H-pyrazolo[4,3-c]pyridin-3-yl)-5-(trifluoromethyl)phenol]: the IC50 was below 100 nM. For the compound `CS(=O)(=O)N1CCN(c2ccc3nc(-c4cc(O)cc(C(F)(F)F)c4)oc3c2)CC1` [Compound 4.01, 3-(6-(4-(Methylsulfonyl)piperazin-1-yl)benzo[d]oxazol-2-yl)-5-(trifluoromethyl)phenol], the IC50 lay within 100 to 1000 nM. Next, `Oc1cccc(-c2ccc3oc(-c4ccc(F)c(O)c4)nc3c2)c1` [Compound 3.03, 2-Fluoro-5-(5-(3-hydroxyphenyl)benzo[d]oxazol-2-yl)phenol]: 1000 to 30000 nM. Next, `O=C(NC12COC(C1)C2)c1ccc2oc(-c3cc(C(F)(F)F)c(F)c(O)c3F)nc2c1` [Compound 1.21, N-(2-Oxabicyclo[2.1.1]hexan-4-yl)-2-(2,4-difluoro-3-hydroxy-5-(trifluoromethyl)phenyl)benzo[d]oxa-zole-5-carboxamide]: 100 to 1000 nM; `O=C(NC1CC1)c1ccc2oc(-c3cc(O)c(F)c(F)c3)nc2c1` [Compound 1.01, N-Cyclopropyl-2-(3,4-difluoro-5-hydroxyphenyl)benzo[d]oxazole-5-carboxamide]: 1000 to 30000 nM.

By IC50 is commonly meant the concentration needed to halve the response being measured.
